Experiments:
[1] = target: U4/U6 snRNA construct (92 nt); test: SPR binding to U4/U6 snRNA construct (92 nt); set-up: species or system yeast; settings: 92 nt RNA, steady-state fit; >100 = signal appeared at 100 μM but failed to fit
Protocol: SPR experiments were carried out using an SPR optical biosensor (BIAcore 3000, Cytiva, USA) based on reported methods with minor modifications.[35] To avoid RNA degradation during long-time injections, the whole microfluidic system was washed by priming 50% RNase Zap buffer and RNase-free water one day before the experiments. Then, by using running buffer (1xPBS, pH7.4, 0.005% Tween 20, 5% DMSO) at a flow rate of 5 μL/min, the binding assays were performed. In brief, a CM5 chip surface coated with carboxylated dextran was activated by standard EDC/NHS amine-coupling protocol and then conjugated with streptavidin (200 ng/mL in 10 mM sodium acetate buffer, pH 4.5) for 30 min, resulting in 4000~6000 response units (RUs) signal. After streptavidin conjugation, the surface was deactivated (1 M ethanolamine, pH 8.5) for 10 min and regenerated (10 mM NaOH) for 2 min to remove unbound SA. Then, the folded U4/U6 RNA with biotin-label at 5′ end was prepared (according to the above-mentioned method) at 5 μM and injected in flow-cell (Fc) 2 for 30 min while Fc1 was kept blank as a reference. Then, the system continued flowing the running buffer until the baseline was stable before future steps.
To detect binding between small molecules and U4/U6 snRNA, a 50 μL compound solution was applied to both Fc1 and Fc2 channels simultaneously at a higher flow rate (25 μL/min). The binding curve contains 120 s association and 200 s dissociation. A pulse of 10 mM NaOH injection was used for regeneration if needed. To measure the dissociation constant (KD), titrations of compound solutions with a serial dilution were applied. The KD value was then calculated by fitting the binding curves based on a steady-state model in BIAevaluation 4.0 software and plotted in GraphPad Prism 9.

[2] = tested on: U4/U6 snRNA construct 92 nt (WT, No. 1) (RNA, junction) GGCCUUAUGCACGGGAAAUACGCAUAUCAGUGAGGAUUCGUCCGAGAUUGUGUUUUUGCUGGUGUAAAUCAGCAGUUCCCCUGCAUAAGGCU; test: SPR steady state; settings: 1x PBS, pH 7.4, 0.005% Tween 20, 5% DMSO

Compound	Kd [1] [µM]	KD ([2]; signal at 100 μM, not fitted) [µM]	KD [2] [µM]
CCc1nnc(-c2nnc(NCCN(CC)CC)c3ccccc23)o1 [Compound 4]	> 100	> 100	
CCN(CC)CCNc1nnc(-c2nnc(C3CC3)o2)c2ccccc12 [Compound 12]	24.2 ± 7		24.2 ± 7.0
CN(C)CCCNc1nnc(-c2nc(-c3ccc(F)cc3)no2)c2ccccc12 [Compound 23]	11.9 ± 7.1		11.9 ± 7.1
c1cncc(CNc2nnc(-c3nc(C4CC4)no3)c3ccccc23)c1 [Compound 18]	> 100		
Fc1ccc(-c2noc(-c3nnc(NCc4cccnc4)c4ccccc34)n2)cc1 [Compound 24]	> 100	> 100	
CCc1nnc(-c2nnc(NCCCN3CCOCC3)c3ccccc23)o1 [Compound 9]	61.3 ± 38.9		61.3 ± 38.9
CCc1nnc(-c2nnc(NCCCOC)c3ccccc23)o1 [Compound 7]	> 100		
CCc1nnc(-c2nnc(NCCN(C)C)c3ccccc23)o1 [Compound 3]	29.2 ± 8.6		29.2 ± 8.6
CCc1nnc(-c2nnc(NCCCN3CCN(C)CC3)c3ccccc23)o1 [Compound 10]	51.4 ± 8		51.4 ± 8.0
CN1CCN(CCNc2nnc(-c3nc(-c4ccc(F)cc4)no3)c3ccccc23)CC1 [Compound 25]	13.9 ± 3.2		13.9 ± 3.2
CCc1nnc(-c2nnc(NCCOC)c3ccccc23)o1 [Compound 6]	> 100		
CCCCNc1nnc(-c2nnc(CC)o2)c2ccccc12 [Compound 5]	> 100		
CCc1nnc(-c2nnc(NCCC(C)C)c3ccccc23)o1 [Compound 11]	> 100		
CCc1nnc(-c2nnc(NCc3cccnc3)c3ccccc23)o1 [Compound 8]	> 100		

Results, then the molecule that gave them:

Kd [1] [µM]	KD ([2]; signal at 100 μM, not fitted) [µM]	KD [2] [µM]	Compound
23.4 ± 6		23.4 ± 6.0	CCN(CC)CCNc1nnc(-c2nc(C3CC3)no2)c2ccccc12 [Compound 15]
34.5 ± 11.3		34.5 ± 11.3	c1ccc2c(-c3nc(C4CC4)no3)nnc(NCCN3CCOCC3)c2c1 [Compound 19]
42.1 ± 8.6		42.1 ± 8.6	c1ccc2c(-c3nc(C4CC4)no3)nnc(NCCCN3CCOCC3)c2c1 [Compound 20]
32.8 ± 11		32.8 ± 11.0	CN(C)CCNc1nnc(-c2nc(C3CC3)no2)c2ccccc12 [Compound 14]
> 100			COCCNc1nnc(-c2nnc(C3CC3)o2)c2ccccc12 [Compound 13]
> 100			CCCCNc1nnc(-c2nc(C3CC3)no2)c2ccccc12 [Compound 16]
> 100			COCCNc1nnc(-c2nc(C3CC3)no2)c2ccccc12 [Compound 17]
23 ± 5.3		23.0 ± 5.3	CN1CCN(CCCNc2nnc(-c3nc(C4CC4)no3)c3ccccc23)CC1 [Compound 21]

Reference: publication doi:10.1101/2025.10.10.681657 (bioRxiv, 2025)
